Measurements taken from patent EP4806890A1, “CRYSTALLINE COMPOUND OR BASIC SALT THEREOF, PREPARATION METHOD THEREFOR, AND USE THEREOF” (Abbisko Therapeutics Co., Ltd., priority 2023, dated 2025).
Entries after “also recorded” stand apart in the source; their conditions may differ. Structures can show the parent of a compound that is named as a salt. One block for each molecule: values may come before it.

Legend:
Format in all cases: physicochemical
[1] = Solubility determination (equilibrium solubility, 24 hrs stirring at room temperature, HPLC); details: for Equilibrium solubility: target concentration 2000 µg/mL, 24 hrs; for pH24 hrs: pH of the filtrate after 24 hrs
Protocol: (§1) The stability and solubility of the crystalline free form of the compound of formula (I) or the basic salt thereof of the present application were determined by HPLC.
The desired amount of the compound was weighed into a glass vial, and the desired amount of a vehicle was added. A stir bar was added to the vial, and the mixture was stirred at room temperature for 24 hrs. After 24 hrs, the appearance of the sample was observed. An appropriate amount of the sample was filtered through a PVDF 0.45 µm filter membrane, and the filtrate was collected. The pH value of the filtrate was determined, and the sample was diluted with MeOH. The diluted sample was injected into an HPLC system to determine the concentration.

[2] = Stability determination (thermal stability and photostability, HPLC purity, appearance, XRPD); details: for XRPD: crystalline form found
Protocol: as §1
An appropriate amount of the sample was placed in a vial and left to stand at 50 °C, 80 °C or 50 °C & 75% RH (open) for 7 days to evaluate thermal stability. An appropriate amount of the sample was placed in a transparent vial, […] evaluation under conditions of overall near-ultraviolet energy of 1.2 * 10^6 Lux·hr and no less than 200 W·hr/m2.

[3] = Hygroscopic behavior test by dynamic vapor sorption (DVS); details: for hygroscopicity (in words): DVS, 25 °C
Text: The experimental method of characterizing the crystalline free form of the compound of formula (I) or the basic salt thereof using dynamic vapor sorption (DVS) is as follows: a small amount of the crystalline sample was placed in a precision sample tray that was compatible with the instrument; after the sample was loaded, the sample tray was placed into the instrument for analysis. In this patent, the instruments used for dynamic vapor sorption were all the DVS Intrinsic plus model, and the following experimental parameters were set: nitrogen was used as the carrier gas, a constant temperature of 25 °C was set, the rate of mass percentage change over a unit of time (dm/dt) = 0.002%/min was used as a criterion for determining if equilibrium is reached, and the program humidity change cycle was set to 50-95-0-95-50% RH; within the range of 0-90% RH, a change of 10% RH was taken as a step, and within the range of 90% RH-95% RH, a change of 5% RH was taken as a step.
In the present invention, the hygroscopic weight increases (hygroscopic weight increase/weight before hygroscopy * 100%) of various crystalline forms under various relative humidity conditions were determined using the dynamic vapor sorption method, and the hygroscopicity of different crystalline compounds was evaluated.

[4] = pH 4.7, 50 mM acetic acid buffer
[5] = pH 6.8, 50 mM phosphoric acid buffer
[6] = 50 °C, 50 °C/75% RH (open), 80 °C for 7 days and photostress for 10 days
[7] = Aluminum foil light exposure control, 9.2 days
[8] = Transparent light exposure, 9.2 days
[9] = Relative humidity 0.0 % at 25 °C
[10] = Relative humidity 10.0 % at 25 °C
[11] = Relative humidity 20.0 % at 25 °C
[12] = Relative humidity 30.0 % at 25 °C
[13] = Relative humidity 40.0 % at 25 °C
[14] = Relative humidity 50.0 % at 25 °C
[15] = Relative humidity 60.0 % at 25 °C
[16] = Relative humidity 70.0 % at 25 °C
[17] = Relative humidity 80.0 % at 25 °C
[18] = Relative humidity 90.0 % at 25 °C
[19] = various pH conditions, buffers and biological medium solutions
[20] = Brown vial light exposure control, 9.2 days

Equilibrium solubility ([1]; FaSSGF): 8.9 µg/mL
Equilibrium solubility ([1]; FaSSIF): 3.21 µg/mL
Equilibrium solubility ([1]; FeSSIF): 5.34 µg/mL
Equilibrium solubility ([1]; Water, room temperature): 3.84 µg/mL
solubility (in words) ([1]; buffer system having a pH of 1.2, compared to the other test conditions): improved solubility
Equilibrium solubility ([1]; pH 1.2, HCl 100 mM): 18.92 µg/mL
Equilibrium solubility [1, 4]: 3.3 µg/mL
Equilibrium solubility [1, 5]: 2.31 µg/mL
pH24 hrs ([1]; FaSSGF): 1.56
pH24 hrs ([1]; FaSSIF): 6.41
pH24 hrs ([1]; FeSSIF): 4.90
pH24 hrs ([1]; Water): 6.78
pH24 hrs ([1]; pH 1.2, HCl 100 mM): 1.30
pH24 hrs [1, 4]: 4.77
pH24 hrs [1, 5]: 6.89
Appearance ([2]; 50 °C, 7 days): White powder
Purity (%) ([2]; 50 °C, 7 days): 98.31%
Appearance ([2]; 50 °C/75%RH, 7 days): White powder
Purity (%) ([2]; 50 °C/75%RH, 7 days): 98.43%
Appearance ([2]; 80 °C, 7 days): White powder
Purity (%) ([2]; 80 °C, 7 days): 97.90%
Appearance [2, 7]: White powder
Purity (%) [2, 7]: 98.51%
Appearance ([2]; Initial, 0 days): White powder
Purity (%) ([2]; Initial, 0 days): 98.42%
Appearance [2, 8]: White powder
Purity (%) [2, 8]: 97.91%
XRPD ([2]; 50 °C, 7 days): Free-form crystalline form C
XRPD ([2]; 50 °C/75%RH, 7 days): Free-form crystalline form C
XRPD ([2]; 80 °C, 7 days): Free-form crystalline form C
XRPD [2, 7]: Free-form crystalline form C
XRPD ([2]; Initial, 0 days): Free-form crystalline form C
XRPD [2, 8]: Free-form crystalline form C
Hygroscopic weight increase (%) [3, 9]: 0.00%
Hygroscopic weight increase (%) [3, 10]: 0.50%
Hygroscopic weight increase (%) [3, 11]: 0.75%
Hygroscopic weight increase (%) [3, 12]: 0.80%
Hygroscopic weight increase (%) [3, 13]: 1.20%
Hygroscopic weight increase (%) [3, 14]: 1.35%
Hygroscopic weight increase (%) [3, 15]: 1.50%
Hygroscopic weight increase (%) [3, 16]: 1.75%
Hygroscopic weight increase (%) [3, 17]: 2.21%
Hygroscopic weight increase (%) [3, 18]: 2.95%
crystalline form changes after DVS testing [3]: no crystalline form changes
Structure (SMILES): Cc1c(NC(=O)c2cc(C3CC3)c(CN3CCCC[C@H]3C(=O)O)cn2)cccc1-c1cccc(NC(=O)c2cc(C3CC3)c(CN3CCCC[C@H]3C(=O)O)cn2)c1C [free-form crystalline form C, (2S,2'S)-1,1'-(((((2,2'-dimethyl-[1,1'-biphenyl]-3,3'-diyl)bis(azanediyl))bis(carbonyl))bis(4-cyclopropylpyridine-6,3-diyl))bis(methylene))bis(piperidine-2-carboxylic acid)]
physical and chemical stability (in words) [2, 6]: extremely high physical and chemical stability
hygroscopicity (in words) [3]: moderately hygroscopic; also recorded: moderate hygroscopicity

Equilibrium solubility ([1]; FaSSGF): 87.01 µg/mL
Equilibrium solubility ([1]; FaSSIF): 78.44 µg/mL
Equilibrium solubility ([1]; FeSSIF): 433.75 µg/mL
Equilibrium solubility ([1]; Water, room temperature): 51.93 µg/mL
Equilibrium solubility ([1]; pH 1.2, HCl 100 mM): 281.84 µg/mL
Equilibrium solubility [1, 4]: 47.41 µg/mL
Equilibrium solubility [1, 5]: 42.11 µg/mL
pH24 hrs ([1]; FaSSGF): 1.57
pH24 hrs ([1]; FaSSIF): 6.43
pH24 hrs ([1]; FeSSIF): 4.94
pH24 hrs ([1]; Water): 5.82
pH24 hrs ([1]; pH 1.2, HCl 100 mM): 1.16
pH24 hrs [1, 4]: 4.73
pH24 hrs [1, 5]: 6.90
solubility (in words) [1, 19]: significantly improved solubility
Appearance ([2]; 50 °C, 7 days): White powder
Purity (%) ([2]; 50 °C, 7 days): 98.13%
Appearance ([2]; 50 °C/75%RH, 7 days): White powder
Purity (%) ([2]; 50 °C/75%RH, 7 days): 98.24%
Appearance ([2]; 80 °C, 7 days): White powder
Purity (%) ([2]; 80 °C, 7 days): 97.22%
Appearance [2, 7]: White powder
Purity (%) [2, 7]: 98.26%
Appearance ([2]; Initial, 0 days): White powder
Purity (%) ([2]; Initial, 0 days): 98.17%
Appearance [2, 8]: White powder
Purity (%) [2, 8]: 96.06%
XRPD ([2]; 50 °C, 7 days): Free-form crystalline form D
XRPD ([2]; 50 °C/75%RH, 7 days): Free-form crystalline form D
XRPD ([2]; 80 °C, 7 days): Free-form crystalline form D
XRPD [2, 7]: Free-form crystalline form D
XRPD ([2]; Initial, 0 days): Free-form crystalline form D
XRPD [2, 8]: Free-form crystalline form D
hygroscopicity (in words) [3]: moderate hygroscopicity
hygroscopicity (in words) ([3]; listed as crystalline form D): moderately hygroscopic
Hygroscopic weight increase (%) [3, 9]: 0.00%
Hygroscopic weight increase (%) [3, 10]: 0.40%
Hygroscopic weight increase (%) [3, 11]: 0.85%
Hygroscopic weight increase (%) [3, 12]: 1.34%
Hygroscopic weight increase (%) [3, 13]: 1.85%
Hygroscopic weight increase (%) [3, 14]: 2.30%
Hygroscopic weight increase (%) [3, 15]: 2.76%
Hygroscopic weight increase (%) [3, 16]: 3.25%
Hygroscopic weight increase (%) [3, 17]: 3.79%
Hygroscopic weight increase (%) [3, 18]: 4.58%
crystalline form changes after DVS testing [3]: no crystalline form changes
Structure (SMILES): Cc1c(NC(=O)c2cc(C3CC3)c(CN3CCCC[C@H]3C(=O)O)cn2)cccc1-c1cccc(NC(=O)c2cc(C3CC3)c(CN3CCCC[C@H]3C(=O)O)cn2)c1C [free-form crystalline form D, (2S,2'S)-1,1'-(((((2,2'-dimethyl-[1,1'-biphenyl]-3,3'-diyl)bis(azanediyl))bis(carbonyl))bis(4-cyclopropylpyridine-6,3-diyl))bis(methylene))bis(piperidine-2-carboxylic acid)]
physical and chemical stability (in words) [2, 6]: extremely high physical and chemical stability

Equilibrium solubility ([1]; FaSSGF): 485 µg/mL
Equilibrium solubility ([1]; FaSSIF): 474 µg/mL
Equilibrium solubility ([1]; FeSSIF): ≥ 2000 µg/mL
Equilibrium solubility ([1]; Water, room temperature): ≥ 2000 µg/mL
Equilibrium solubility ([1]; pH 1.2, HCl 100 mM): ≥ 2000 µg/mL
Equilibrium solubility [1, 4]: 135 µg/mL
Equilibrium solubility [1, 5]: 194 µg/mL
pH24 hrs ([1]; FaSSGF): 1.72
pH24 hrs ([1]; FaSSIF): 6.93
pH24 hrs ([1]; FeSSIF): 6.90
pH24 hrs ([1]; Water): 9.96
pH24 hrs ([1]; pH 1.2, HCl 100 mM): 0.95
pH24 hrs [1, 4]: 4.92
pH24 hrs [1, 5]: 7.03
solubility (in words) [1, 19]: excellent solubility
Appearance ([2]; 50 °C, 7 days): White powder
Purity (%) ([2]; 50 °C, 7 days): 92.11%
Appearance ([2]; 50 °C/75%RH, 7 days): White powder
Purity (%) ([2]; 50 °C/75%RH, 7 days): 92.97%
Appearance ([2]; 80 °C, 7 days): White powder
Purity (%) ([2]; 80 °C, 7 days): 90.77%
Appearance [2, 7]: White powder
Purity (%) [2, 7]: 89.50%
Appearance [2, 20]: White powder
Purity (%) [2, 20]: 88.10%
Appearance ([2]; Initial, 0 days): White powder
Purity (%) ([2]; Initial, 0 days): 91.23%
Appearance [2, 8]: White powder
Purity (%) [2, 8]: 83.10%
XRPD ([2]; 50 °C, 7 days): Crystalline form B of disodium salt
XRPD ([2]; 50 °C/75%RH, 7 days): Crystalline form B of disodium salt
XRPD ([2]; 80 °C, 7 days): Crystalline form B of disodium salt
XRPD [2, 7]: Crystalline form B of disodium salt
XRPD [2, 20]: Crystalline form B of disodium salt
XRPD ([2]; Initial, 0 days): Crystalline form B of disodium salt
XRPD [2, 8]: Crystalline form B of disodium salt
sensitivity to light (in words) ([2]; light exposure): sensitive to light exposure
Structure (SMILES): Cc1c(NC(=O)c2cc(C3CC3)c(CN3CCCC[C@H]3C(=O)O)cn2)cccc1-c1cccc(NC(=O)c2cc(C3CC3)c(CN3CCCC[C@H]3C(=O)O)cn2)c1C [crystalline form B of disodium salt anhydrate] [(2S,2'S)-1,1'-(((((2,2'-dimethyl-[1,1'-biphenyl]-3,3'-diyl)bis(azanediyl))bis(carbonyl))bis(4-cyclopropylpyridine-6,3-diyl))bis(methylene))bis(piperidine-2-carboxylic acid)]
physical and chemical stability (in words) ([2]; 50 °C, 50 °C/75% RH or brown light exposure): relatively high physical and chemical stability
crystalline form transformation (in words) ([2]; high temperature and light exposure): no crystalline form transformation was observed
physical stability (in words) ([2]; stability testing conditions, incl. high temperature and high humidity): good physical stability; also recorded: relatively high physical stability
